Assay results: patent publication US10202374B2, “6-aryl-4-phenylamino-quinazoline analogs as phosphoinositide-3-kinase inhibitors” (COUNCIL OF SCIENTIFIC & INDUSTRIAL RESEARCH, priority 2014, dated 2019)

Key:
[1] = system: MCF-7 (breast cancer) cells; test: MTT cytotoxicity assay, MCF-7; type: cell-based; settings: Homo sapiens, MCF7, 48 h treatment, read-out: Anticancer activity IC50 MCF-7
Procedure: (§1) Compounds proposed in present invention were evaluated for their cytotoxic effect against panel of 5 cancer cell line viz. Panc-1 (pancreatic cancer), MCF-7 (breast cancer), PC-3 (prostate), HL-60 (leukemia) and A-375 (melanoma) using MTT assay. In each well of a 96-well plate, 3×10^3 cells were grown in 100 μL of medium. After 24 h, each test molecules were added to achieve a final concentration of 10 to 0.01 μmol/L, respectively. After 48 h of treatment, 20 μL of 2.5 mg/mL MTT (Organics Research, Inc.) solution in phosphate buffer saline was added to each well. […], supernatant was removed and formazan crystals were dissolved in 200 μL of DMSO. Absorbance was then measured at 570 nm using an absorbance plate reader (Bio-Rad Microplate Reader). Data are expressed as the percentage of viable cells in treated relative to non-treated conditions. Each experiment was repeated thrice and data was expressed as mean±SD of three independent experiments (Mordant, P. et al., Mol. Cancer Ther. 2010, 9, 358).

PI3K-β = PI3K-β (Homo sapiens, UniProt P42338); test: PI3K-β assay (ADP-Glo); type: biochemical; settings: for IC50: read-out: PI3K inhibition IC50 -β; for Fold-selectivity for PI3K-α with respect to -β: α versus β isoform
Chain of PI3K-β (P42338 whole entry, species assumed, canonical isoform): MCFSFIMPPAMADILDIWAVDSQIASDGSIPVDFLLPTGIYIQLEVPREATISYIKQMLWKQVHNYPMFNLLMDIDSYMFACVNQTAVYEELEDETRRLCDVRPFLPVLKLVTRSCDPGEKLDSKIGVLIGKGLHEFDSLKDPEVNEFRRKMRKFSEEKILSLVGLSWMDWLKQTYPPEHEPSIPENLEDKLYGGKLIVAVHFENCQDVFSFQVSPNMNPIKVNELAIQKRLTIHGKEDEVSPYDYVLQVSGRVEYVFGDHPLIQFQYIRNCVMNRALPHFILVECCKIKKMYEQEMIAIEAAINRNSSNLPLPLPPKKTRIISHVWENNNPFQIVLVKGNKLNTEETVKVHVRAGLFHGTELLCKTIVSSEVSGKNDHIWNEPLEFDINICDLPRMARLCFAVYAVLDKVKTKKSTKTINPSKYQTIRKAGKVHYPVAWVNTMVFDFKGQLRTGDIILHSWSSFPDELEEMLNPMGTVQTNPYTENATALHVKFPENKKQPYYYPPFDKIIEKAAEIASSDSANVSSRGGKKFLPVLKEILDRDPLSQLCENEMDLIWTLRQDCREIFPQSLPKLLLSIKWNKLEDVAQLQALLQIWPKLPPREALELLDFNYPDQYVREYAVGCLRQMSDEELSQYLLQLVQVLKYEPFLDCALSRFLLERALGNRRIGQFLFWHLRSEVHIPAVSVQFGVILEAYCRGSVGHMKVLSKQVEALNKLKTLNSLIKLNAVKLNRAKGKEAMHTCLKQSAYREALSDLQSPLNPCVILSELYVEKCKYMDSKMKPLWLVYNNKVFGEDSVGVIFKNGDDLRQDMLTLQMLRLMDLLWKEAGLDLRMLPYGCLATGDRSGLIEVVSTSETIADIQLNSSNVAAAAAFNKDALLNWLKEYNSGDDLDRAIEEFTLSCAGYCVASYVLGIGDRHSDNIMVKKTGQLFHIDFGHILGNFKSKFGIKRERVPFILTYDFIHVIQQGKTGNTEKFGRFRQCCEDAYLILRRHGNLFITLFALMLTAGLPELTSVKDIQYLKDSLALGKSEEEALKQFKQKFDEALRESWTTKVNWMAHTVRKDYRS
Chain of PI3K-β (P27986 whole entry partner, species assumed, canonical isoform): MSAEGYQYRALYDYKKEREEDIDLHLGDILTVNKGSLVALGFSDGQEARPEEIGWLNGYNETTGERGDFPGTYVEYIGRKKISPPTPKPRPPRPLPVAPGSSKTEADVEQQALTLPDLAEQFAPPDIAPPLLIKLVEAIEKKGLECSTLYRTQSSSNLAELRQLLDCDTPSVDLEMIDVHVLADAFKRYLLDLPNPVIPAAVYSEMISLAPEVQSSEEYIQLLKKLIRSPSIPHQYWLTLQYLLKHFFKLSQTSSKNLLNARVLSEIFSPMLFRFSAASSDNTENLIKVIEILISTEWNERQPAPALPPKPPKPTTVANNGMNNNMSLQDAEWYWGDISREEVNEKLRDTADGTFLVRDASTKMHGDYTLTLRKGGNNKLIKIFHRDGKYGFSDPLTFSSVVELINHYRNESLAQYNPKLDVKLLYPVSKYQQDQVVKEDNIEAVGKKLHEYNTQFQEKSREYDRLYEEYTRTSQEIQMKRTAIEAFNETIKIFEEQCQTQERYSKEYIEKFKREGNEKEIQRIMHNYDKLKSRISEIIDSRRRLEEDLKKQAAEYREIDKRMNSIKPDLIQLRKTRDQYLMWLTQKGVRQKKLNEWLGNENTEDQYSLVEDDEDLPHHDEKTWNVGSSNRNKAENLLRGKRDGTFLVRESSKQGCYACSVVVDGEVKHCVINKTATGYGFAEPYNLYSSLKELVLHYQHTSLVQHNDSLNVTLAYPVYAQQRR
Procedure: The enzyme is assayed for 60 min after which 20 ul of ADP-Glo reagent is added. After a further incubation of 40 min, 40 ul of kinase detection Buffer is added. The assays are incubated for 40 min and then read on PerkinElmer Envision for 1 sec/well.

[2] = system: PC-3 (prostate cancer) cells; test: MTT cytotoxicity assay, PC-3; type: cell-based; settings: Homo sapiens, 48 h treatment, read-out: Anticancer activity IC50 PC-3
Procedure: as §1

[3] = system: Panc-1 (pancreatic cancer) cells; test: MTT cytotoxicity assay, Panc-1; type: cell-based; settings: Homo sapiens, 48 h treatment, read-out: Anticancer activity IC50 Panc-1
Procedure: as §1

PI3K-α = PI3K-α (Homo sapiens, UniProt P42336); test: PI3K-α assay (ADP-Glo); type: biochemical; settings: for inhibition at 0.5 µM / % Inhibition of PI3K-α at 0.5 μM: preliminary screening; for IC50: read-out: PI3K inhibition IC50 -α
Chain of PI3K-α (P42336 whole entry): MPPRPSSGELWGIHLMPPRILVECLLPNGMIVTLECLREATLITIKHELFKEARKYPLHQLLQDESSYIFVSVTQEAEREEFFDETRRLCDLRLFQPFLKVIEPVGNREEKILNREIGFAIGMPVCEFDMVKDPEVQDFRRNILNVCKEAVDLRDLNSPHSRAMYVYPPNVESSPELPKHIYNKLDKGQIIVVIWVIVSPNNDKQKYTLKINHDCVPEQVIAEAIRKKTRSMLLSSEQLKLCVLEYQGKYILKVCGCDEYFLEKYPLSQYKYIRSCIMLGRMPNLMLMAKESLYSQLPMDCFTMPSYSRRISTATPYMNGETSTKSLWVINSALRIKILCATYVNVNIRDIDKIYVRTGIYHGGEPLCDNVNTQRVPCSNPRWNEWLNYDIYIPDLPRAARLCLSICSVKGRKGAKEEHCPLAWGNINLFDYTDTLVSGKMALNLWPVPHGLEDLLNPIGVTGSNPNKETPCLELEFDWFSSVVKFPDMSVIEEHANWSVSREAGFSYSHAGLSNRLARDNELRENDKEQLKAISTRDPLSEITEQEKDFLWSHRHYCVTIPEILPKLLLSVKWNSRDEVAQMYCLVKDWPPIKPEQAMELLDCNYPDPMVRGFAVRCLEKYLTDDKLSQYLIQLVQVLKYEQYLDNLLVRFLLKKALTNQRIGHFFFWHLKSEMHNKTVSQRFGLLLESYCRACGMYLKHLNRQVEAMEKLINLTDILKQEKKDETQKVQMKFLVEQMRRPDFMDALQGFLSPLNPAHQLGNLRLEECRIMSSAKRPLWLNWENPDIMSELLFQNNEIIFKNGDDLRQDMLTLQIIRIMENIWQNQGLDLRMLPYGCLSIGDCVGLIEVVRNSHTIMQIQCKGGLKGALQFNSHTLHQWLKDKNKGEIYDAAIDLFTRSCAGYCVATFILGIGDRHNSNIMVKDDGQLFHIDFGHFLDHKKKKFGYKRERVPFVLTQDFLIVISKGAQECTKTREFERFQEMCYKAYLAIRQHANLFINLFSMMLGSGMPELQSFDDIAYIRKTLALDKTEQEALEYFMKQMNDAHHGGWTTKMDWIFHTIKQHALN
Chain of PI3K-α (P27986 whole entry partner): as the sequence (P27986 whole entry partner, species assumed, canonical isoform) above
Procedure: The enzyme is assayed for 80 min after which 20 ul of ADP-Glo reagent is added. After a further incubation of 40 min, 40 ul of Kinase Detection Buffer is added. The assays are incubated for 40 min and then read on PerkinElmer Envision for 1 sec/well.

A-375 (melanoma) cells = test: MTT cytotoxicity assay, A375; type: cell-based; settings: Homo sapiens, 48 h treatment, read-out: Anticancer activity IC50 A375
Procedure: as §1

PI3K-γ = PI3K-γ (Homo sapiens, UniProt P48736); test: PI3K-γ assay (ADP-Glo); type: biochemical; settings: for IC50: read-out: PI3K inhibition IC50 -γ; for Fold-selectivity for PI3K-α with respect to -γ: α versus γ isoform
Chain of PI3K-γ (P48736 whole entry, species assumed, canonical isoform): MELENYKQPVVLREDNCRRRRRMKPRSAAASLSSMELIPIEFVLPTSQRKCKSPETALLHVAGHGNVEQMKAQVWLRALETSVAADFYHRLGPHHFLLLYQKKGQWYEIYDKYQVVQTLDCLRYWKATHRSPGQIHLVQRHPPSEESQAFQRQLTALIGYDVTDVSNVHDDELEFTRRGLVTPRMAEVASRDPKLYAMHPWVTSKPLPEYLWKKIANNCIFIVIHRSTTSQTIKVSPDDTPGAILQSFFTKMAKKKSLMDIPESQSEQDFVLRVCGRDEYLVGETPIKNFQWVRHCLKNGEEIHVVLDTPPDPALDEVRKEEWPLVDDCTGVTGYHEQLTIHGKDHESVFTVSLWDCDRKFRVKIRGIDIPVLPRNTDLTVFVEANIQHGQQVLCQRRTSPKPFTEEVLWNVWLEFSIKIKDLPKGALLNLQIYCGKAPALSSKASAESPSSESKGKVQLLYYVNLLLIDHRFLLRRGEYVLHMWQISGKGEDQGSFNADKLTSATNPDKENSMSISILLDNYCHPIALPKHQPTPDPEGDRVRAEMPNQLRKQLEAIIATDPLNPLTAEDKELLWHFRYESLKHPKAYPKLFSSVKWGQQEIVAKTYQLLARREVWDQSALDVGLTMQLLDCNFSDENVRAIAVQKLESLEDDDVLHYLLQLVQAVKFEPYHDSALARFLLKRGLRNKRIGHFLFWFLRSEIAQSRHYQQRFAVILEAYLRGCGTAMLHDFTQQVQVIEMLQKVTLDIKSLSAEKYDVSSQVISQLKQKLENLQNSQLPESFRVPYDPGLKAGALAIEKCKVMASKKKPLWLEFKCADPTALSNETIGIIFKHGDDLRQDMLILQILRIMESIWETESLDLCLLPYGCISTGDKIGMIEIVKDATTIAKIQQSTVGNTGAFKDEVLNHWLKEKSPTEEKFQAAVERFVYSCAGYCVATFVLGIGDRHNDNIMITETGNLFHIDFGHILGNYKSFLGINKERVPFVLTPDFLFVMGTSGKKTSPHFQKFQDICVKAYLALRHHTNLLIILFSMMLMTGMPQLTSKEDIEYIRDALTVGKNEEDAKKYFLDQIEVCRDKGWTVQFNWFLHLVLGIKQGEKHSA
Procedure: The enzyme is assayed for 75 min after which 20 ul of ADP-Glo reagent is added. After a further incubation of 40 min, 40 ul of Kinase Detection Buffer is added. The assays are incubated for 40 min and then read on PerkinElmer Envision for 1 sec/well.

HL-60 (leukemia) cells = test: MTT cytotoxicity assay, HL-60; type: cell-based; settings: Homo sapiens, 48 h treatment, read-out: Anticancer activity IC50 HL-60
Procedure: as §1

PI3K-δ = PI3K-δ (Homo sapiens, UniProt O00329); test: PI3K-δ assay (ADP-Glo); type: biochemical; settings: for IC50: read-out: PI3K inhibition IC50 -δ; for Fold-selectivity for PI3K-α with respect to -δ: α versus δ isoform
Chain of PI3K-δ (O00329 whole entry, species assumed, canonical isoform): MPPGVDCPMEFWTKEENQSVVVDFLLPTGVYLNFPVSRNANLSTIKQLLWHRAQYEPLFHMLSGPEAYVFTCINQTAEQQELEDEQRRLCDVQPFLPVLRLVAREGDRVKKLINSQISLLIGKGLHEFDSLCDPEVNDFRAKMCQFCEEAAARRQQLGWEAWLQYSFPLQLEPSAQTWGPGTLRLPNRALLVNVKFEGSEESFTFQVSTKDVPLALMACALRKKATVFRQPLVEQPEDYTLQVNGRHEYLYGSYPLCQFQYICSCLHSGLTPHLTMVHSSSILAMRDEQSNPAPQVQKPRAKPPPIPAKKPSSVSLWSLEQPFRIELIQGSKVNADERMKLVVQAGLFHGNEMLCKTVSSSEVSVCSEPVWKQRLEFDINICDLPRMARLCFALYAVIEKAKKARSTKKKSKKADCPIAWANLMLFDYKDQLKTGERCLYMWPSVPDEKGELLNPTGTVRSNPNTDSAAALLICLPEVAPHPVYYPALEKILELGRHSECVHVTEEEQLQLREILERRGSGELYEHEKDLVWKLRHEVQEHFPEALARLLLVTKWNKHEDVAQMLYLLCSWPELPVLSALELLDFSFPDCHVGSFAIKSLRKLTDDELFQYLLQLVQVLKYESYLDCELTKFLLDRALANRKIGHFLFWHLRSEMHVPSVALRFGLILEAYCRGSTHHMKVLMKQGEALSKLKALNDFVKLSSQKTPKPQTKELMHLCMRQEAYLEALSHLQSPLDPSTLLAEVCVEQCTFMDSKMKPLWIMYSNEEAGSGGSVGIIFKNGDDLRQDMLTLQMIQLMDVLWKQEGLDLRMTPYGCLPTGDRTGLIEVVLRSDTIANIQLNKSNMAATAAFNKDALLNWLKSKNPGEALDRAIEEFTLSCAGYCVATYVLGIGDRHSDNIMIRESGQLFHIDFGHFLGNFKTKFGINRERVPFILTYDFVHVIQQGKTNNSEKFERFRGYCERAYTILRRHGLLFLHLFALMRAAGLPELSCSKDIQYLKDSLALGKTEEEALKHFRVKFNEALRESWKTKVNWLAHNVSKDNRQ
Chain of PI3K-δ (P27986 whole entry partner, species assumed, canonical isoform): as the sequence (P27986 whole entry partner, species assumed, canonical isoform) above
Procedure: Compounds proposed in present invention were evaluated for their inhibitory activity on phosphoinositide-3-kinase-alpha and other isoforms (beta, gamma and delta). […] The protocols used for these bioassays are as follows:
The enzyme is assayed for 120 min after which 20 ul of ADP-Glo reagent is added. After a further incubation of 40 min, 40 ul of Kinase Detection Buffer is added. The assays are incubated for 40 min and then read on PerkinElmer Envision for 1 sec/well.

Q: Which results are given for `CC(=O)Nc1cccc(-c2ccc3ncnc(Nc4ccc(CC#N)cc4)c3c2)c1` [Compound 15, 6-(3-acetylaminophenyl)-4-(4-cyanomethyl)phenylamino quinazoline]?
A: IC50 [1]: 14 µM; IC50 (PI3K-β): > 10 µM; Fold-selectivity for PI3K-α with respect to -β (PI3K-β): >21 fold; IC50 [2]: 26 µM; IC50 [3]: 38 µM; inhibition at 0.5 µM (PI3K-α): 36.8%; IC50 (PI3K-α): 475 nM; IC50 (A-375 (melanoma) cells): 38 µM; IC50 (PI3K-γ): 6.95 µM; Fold-selectivity for PI3K-α with respect to -γ (PI3K-γ): 14.6 fold; IC50 (HL-60 (leukemia) cells): 23 µM; IC50 (PI3K-δ): > 10 µM; Fold-selectivity for PI3K-α with respect to -δ (PI3K-δ): >21 fold

Q: With `N#CCc1ccc(Nc2ncnc3ccc(-c4ccc5[nH]ccc5c4)cc23)cc1` [Compound 26, 6-(1H-indol-5-yl)-4-(4-cyanomethyl)phenylamino-quinazoline] as the molecule, how does the IC50 [1] read?
A: 7 µM

Q: And the IC50 (PI3K-β)?
A: > 10 µM

Q: And the “Fold-selectivity for PI3K-α with respect to -β” value (PI3K-β)?
A: >49.7 fold

Q: What about the IC50 [2] of the same molecule?
A: 24 µM

Q: And the IC50 [3]?
A: 16 µM

Q: What about the “% Inhibition of PI3K-α at 0.5 μM” value (PI3K-α) of the same molecule?
A: 47.5%

Q: And the inhibition at 0.5 µM (PI3K-α)?
A: > 40%

Q: What about the IC50 (PI3K-α) of the same molecule?
A: 201 nM

Q: And the IC50 (A-375 (melanoma) cells)?
A: 31 µM

Q: What about the IC50 (PI3K-γ) of the same molecule?
A: 0.75 µM

Q: What about the “Fold-selectivity for PI3K-α with respect to -γ” value (PI3K-γ) of the same molecule?
A: 3.7 fold

Q: And the IC50 (HL-60 (leukemia) cells)?
A: 18 µM

Q: What about the IC50 (PI3K-δ) of the same molecule?
A: > 10 µM

Q: And the “Fold-selectivity for PI3K-α with respect to -δ” value (PI3K-δ)?
A: >49.7 fold

Q: Which results are given for `N#CCc1ccc(Nc2ncnc3ccc(-c4cncc5ccccc45)cc23)cc1` [Compound 29, 6-(isoquinolin-4-yl)-4-(4-cyanomethyl)phenylamino-quinazoline]?
A: IC50 [1]: 12 µM; IC50 (PI3K-β): > 20 µM; % inhibition of PI3K-β (PI3K-β; up to 20 μM): 0%; Fold-selectivity for PI3K-α with respect to -β (PI3K-β): >133 fold; IC50 [2]: 9 µM; IC50 [3]: 9 µM; % Inhibition of PI3K-α at 0.5 μM (PI3K-α): 48.8%; inhibition at 0.5 µM (PI3K-α): > 40%; IC50 (PI3K-α): 150 nM; IC50 (A-375 (melanoma) cells): 12 µM; IC50 (PI3K-γ): 8.44 µM; Fold-selectivity for PI3K-α with respect to -γ (PI3K-γ): 56 fold; IC50 (HL-60 (leukemia) cells): 10 µM; IC50 (PI3K-δ): 0.88 µM; Fold-selectivity for PI3K-α with respect to -δ (PI3K-δ): 5.9 fold

Q: What does the source list for `C=Cc1ccc(-c2ccc3ncnc(Nc4ccc(CC#N)cc4)c3c2)cc1` [Compound 13, 6-(4-vinylphenyl)-4-(4-cyanomethyl)phenylamino quinazoline]?
A: IC50 [1]: 11 µM; IC50 (PI3K-β): > 10 µM; Fold-selectivity for PI3K-α with respect to -β (PI3K-β): 1 fold; IC50 [2]: 34 µM; IC50 [3]: 32 µM; inhibition at 0.5 µM (PI3K-α): 36.4%; IC50 (PI3K-α): > 10000 nM; IC50 (A-375 (melanoma) cells): 27 µM; IC50 (PI3K-γ): 0.52 µM; IC50 (HL-60 (leukemia) cells): 16 µM; IC50 (PI3K-δ): > 10 µM; Fold-selectivity for PI3K-α with respect to -δ (PI3K-δ): 1 fold
